Assay results published in PMC10033419, “Blocking NS3–NS4B interaction inhibits dengue virus in non-human primates” (Nature, 2023).
“And” between values parts separate entries of the source, which are not always exact repeats. Equal entries are not always repeated. Where two headings read alike, the source gives them in different places.

Assays:
[1] = rhesus monkey, in vivo
in vitro = conditions: African green monkey
DENV-2/16681 = test: NHP DENV-2 study, NS1 ELISA in serum; parameters: species or system rhesus macaques (M. mulatta); conditions: rhesus monkey, in vivo
[2] = test system: DENV-2 Asian America Martinique; format: cell-based; conditions: T108I in NS4B
INF-B Singapore = test: microbe, parasite or virus in culture; format: cell-based; conditions: Influenza B virus, MDCK
[3] = ATPLite cell viability assay; format: cell-based, African green monkey; conditions: African green monkey, Vero cells
Description: (§1) In parallel, the toxicity was measured using an ATPLite cell viability luminescence assay (PerkinElmer). The assays were performed in three different cell types (Vero, Huh-7 and THP-1/DC-SIGN) as described in ref. [3] to exclude cell-specific activity of the compound.

Vero cells = test: ATPLite cell viability assay; format: cell-based, African green monkey; conditions: individual experiments, listed as 64281802-AAA
Description: as §1

[4] = test system: NS4A-2K-NS4B precursor cleavage; test: microbe, parasite or virus in culture; format: cell-based, DENV-2
CHIKV S27 = test: CPE inhibition assay ATPLite, Huh-7; format: cell-based; conditions: Chikungunya virus
DENV-1 G4 45AZ5 = test: DENV-1/45AZ5 antiviral assay RT-qPCR; format: cell-based
Description: A total of 20 DENV strains, representing the available genotypes within the four DENV serotypes, were used in the in vitro genotype panel, from which 19 viruses were described previously in ref. [3] and one additional virus, DENV-1/45AZ5 (ref. [54]), was added.
A potential toxic effect on host cells was tested in parallel, while omitting virus infection, using the MTS/PMS method (Promega) for Vero cells, or by high-content imaging for C6/36 cells, as described previously. […] RT–qPCR data were analysed using the QuantStudio 12K Flex software (v.1.2.3) or SDS v.1.2 Applied Biosystems software. Inhibition values for antiviral molecules were plotted using KaleidaGraph plotting software (v.4.03, Synergy Software).

in vivo = conditions: rhesus monkey, iv, 1 mg/kg
Description: After single intravenous administration, the monkey blood was collected at the BPRC just before dosing, and at 0.05, 0.15, 0.5, 4, 6, 8, 24, 48 and 264 h after dosing. After oral administration, the monkey blood was collected at the BPRC on the first and last day of dosing just before dosing and at 1, 2, 4, 6, 8 and 24 h after dosing that day. Moreover, blood samples were taken on days 3, 6 and 7 after infection just before dosing. For the study at WRAIR, the monkey blood was collected just before dosing and at 1, 4, 8 and 24 h after the first day of dosing and before dosing and at 2, 5, 8, 24 and 96 h after the last day of dosing. Furthermore, blood samples were taken on days 0, 2, 5 and 8 after infection just before dosing. […] A volume of 1 ml blood was collected into a blood collection tube coated with EDTA as anti-coagulant. Within 1 h after collection, the blood samples were centrifuged in a precooled centrifuge for 10 min at 1,500g (4 °C). Within 2 h after blood collection, the plasma samples were stored at −80 °C until shipment. Individual plasma concentration–time profiles were processed for a non-compartmental pharmacokinetics analysis using Phoenix WinNonlin v.6.3. (Certara).

## COc1cc(N[C@H](C(=O)c2c[nH]c3ccc(OC(F)(F)F)cc23)c2ccc(Cl)cc2OC)cc(S(C)(=O)=O)c1 [JNJ-1802]
[1]
  adverse effects: No adverse effects were observed
  weight loss: not attributable to treatment with JNJ-1802
In vitro
  CC50: 16000 nM
DENV-2/16681
  NS1 protein in serum: positive NS1 signal
[2]
  EC50: 0.8 ± 0.7 nM
  EC90: 1.88 ± 1.37 nM
INF-B Singapore
  EC50: > 2600 nM
INF-B Singapore; read-out: EC50, Mean
  EC50: > 25000 nM
INF-B Singapore; read-out: EC90, Mean
  EC90: > 25000 nM
[3]; TOX d4 preseeding, individual experiments
  CC50 at 4 d: 3040 nM
[3]; Vero
  CC50: 2610 ± 470 nM
[3]; Vero with 50% HS
  CC50: > 1500 nM
Vero cells; Vero cells in presence of 50% HS
  CC50: > 2500 nM
Vero cells; Vero cells, TOX d4 preseeding
  CC50: 3080 nM and 2400 nM and 2780 nM and 3520 nM and 2200 nM and 2320 nM and 2270 nM and 2310 nM and 2180 nM
[4]; Dengue virus, read-out: EC50 2k-4B Input, Mean, WT
  EC50: 1.72 nM
[4]; L94F, 10 nM
  2K-NS4B proportion in lysate: 18.25% and 11.99% and 16.55%
[4]; L94F, 500 nM
  2K-NS4B proportion in lysate: 4.03% and 6.25% and 1.49%
  NS4A-2K-NS4B proportion in lysate: 75.65% and 50.22% and 78.28%
[4]; L94F, 1000 nM
  2K-NS4B proportion in lysate: 3.64% and 2.91% and 2.22%
  NS4A-2K-NS4B proportion in lysate: 77.84% and 43.16% and 74.46%
[4]; L94F, read-out: EC50 2k-4B Input, Mean
  EC50: 108 nM
[4]; T108I, 0.5 nM
  2K-NS4B proportion in lysate: 23.11% and 13.79% and 13.87%
  NS4A-2K-NS4B proportion in lysate: 44.71% and 43.02% and 68.40%
[4]; T108I, 1 nM
  NS4A-2K-NS4B proportion in lysate: 72.39% and 47.37% and 49.13%
[4]; T108I, 5 nM
  2K-NS4B proportion in lysate: 9.35% and 15.53% and 10.95%
  NS4A-2K-NS4B proportion in lysate: 71.83% and 55.33% and 51.65%
  NS4B proportion in lysate: 18.83% and 29.14% and 37.41%
[4]; T108I, 10 nM
  2K-NS4B proportion in lysate: 5.10% and 8.23% and 10.83%
  NS4A-2K-NS4B proportion in lysate: 71.88% and 68.85% and 55.44%
  NS4B proportion in lysate: 23.02% and 22.91% and 33.72%
[4]; T108I, 50 nM
  2K-NS4B proportion in lysate: 3.79% and 3.62% and 3.12%
  NS4A-2K-NS4B proportion in lysate: 72.18% and 59.64% and 51.99%
  NS4B proportion in lysate: 24.02% and 36.74% and 44.89%
[4]; T108I, single replicates, read-out: EC50 (2k-4B), Input
  EC50: 6.08 nM and 6.88 nM and 20.9 nM
[4]; T108I, read-out: EC50 2k-4B Input, Mean
  EC50: 11.3 nM
[4]; V91A, 10 nM
  2K-NS4B proportion in lysate: 18.41% and 10.69% and 19.20%
[4]; V91A, 50 nM
  2K-NS4B proportion in lysate: 12.06% and 15.08% and 7.29%
[4]; V91A, 100 nM
  2K-NS4B proportion in lysate: 6.22% and 11.02% and 2.95%
[4]; V91A, 500 nM
  2K-NS4B proportion in lysate: 2.16% and 3.56% and 1.47%
  NS4A-2K-NS4B proportion in lysate: 73.60% and 43.02% and 80.18%
[4]; V91A, 1000 nM
  2K-NS4B proportion in lysate: 2.06% and 2.88% and 1.78%
[4]; V91A, single replicates, read-out: EC50 (2k-4B), Input
  EC50: 44.9 nM and 134 nM and 55.6 nM
[4]; V91A, read-out: EC50 2k-4B Input, Mean
  EC50: 78 nM
[4]; WT, 0.5 nM
  2K-NS4B proportion in lysate: 20.47% and 12.95% and 13.02%
  NS4A-2K-NS4B proportion in lysate: 48.09% and 36.63% and 65.93%
[4]; WT, 1 nM
  2K-NS4B proportion in lysate: 5.60% and 9.33% and 12.10%
  NS4A-2K-NS4B proportion in lysate: 66.81% and 44.14% and 43.57%
  NS4B proportion in lysate: 27.59% and 46.53% and 44.33%
[4]; WT, 5 nM
  2K-NS4B proportion in lysate: 3.71% and 6.95% and 6.88%
  NS4A-2K-NS4B proportion in lysate: 60.94% and 43.36% and 51.87%
  NS4B proportion in lysate: 35.35% and 49.69% and 41.25%
[4]; WT, 10 nM
  2K-NS4B proportion in lysate: 3.62% and 6.23% and 4.49%
  NS4A-2K-NS4B proportion in lysate: 59.94% and 47.30% and 50.84%
  NS4B proportion in lysate: 36.44% and 46.47% and 44.67%
[4]; WT, 50 nM
  2K-NS4B proportion in lysate: 5.23% and 6.22% and 5.06%
  NS4A-2K-NS4B proportion in lysate: 53.55% and 57.44% and 58.39%
  NS4B proportion in lysate: 41.22% and 36.34% and 36.55%
[4]; read-out: EC50 (2k-4B), Input, WT, single replicates
  EC50: 0.491 nM and 0.62 nM and 4.06 nM
CHIKV S27; Huh-7
  EC50: > 25000 nM
CHIKV S27; Huh-7, read-out: EC90, Mean
  EC90: > 25000 nM
DENV-1 G4 45AZ5; DENV-qPCR-VeroECACC-deltaCt-DENV-1/45AZ5_pre-seeding, single experiments (EXPERIMENT_ID), listed as 64281802-AAA, read-out: EC50 (µM) result_value, DENV-1/45AZ5
  EC50: 0.0016 µM
DENV-1 G4 45AZ5; Dengue virus, DENV1
  EC90: 4.18 ± 0.71 nM
DENV-1 G4 45AZ5; Dengue virus, DENV1, DENV-qPCR-VeroECACC-deltaCt-DENV-1/45AZ5_pre-seeding, mean of 6 results, read-out: EC50 (µM) Mean, DENV-1/45AZ5
  EC50: 0.00152 µM
DENV-1 G4 45AZ5; Dengue virus, DENV1, DENV-qPCR-VeroECACC-deltaCt-DENV-1/45AZ5_pre-seeding, single experiments (EXPERIMENT_ID), read-out: EC50 (µM) result_value, DENV-1/45AZ5
  EC50: 0.0015 µM
In vivo; female, in vivo
  AUC(0-inf): 11800 ng·h/mL
In vivo; female, plasma
  AUC(0-t): 6730 ng·h/mL
  clearance: 1.67 ± 0.74 mL/min/kg
  half-life: 50 ± 12 h
In vivo; in vivo
  Vdssp: 3.93 ± 1.18 L/kg
